Patent US20090022694A1, “SIRT1 INHIBITION” (priority 2005, published 2009)

Biological target: T1, SirT1 (Homo sapiens, UniProt Q96EB6)
T1 sequence (Q96EB6 1-747): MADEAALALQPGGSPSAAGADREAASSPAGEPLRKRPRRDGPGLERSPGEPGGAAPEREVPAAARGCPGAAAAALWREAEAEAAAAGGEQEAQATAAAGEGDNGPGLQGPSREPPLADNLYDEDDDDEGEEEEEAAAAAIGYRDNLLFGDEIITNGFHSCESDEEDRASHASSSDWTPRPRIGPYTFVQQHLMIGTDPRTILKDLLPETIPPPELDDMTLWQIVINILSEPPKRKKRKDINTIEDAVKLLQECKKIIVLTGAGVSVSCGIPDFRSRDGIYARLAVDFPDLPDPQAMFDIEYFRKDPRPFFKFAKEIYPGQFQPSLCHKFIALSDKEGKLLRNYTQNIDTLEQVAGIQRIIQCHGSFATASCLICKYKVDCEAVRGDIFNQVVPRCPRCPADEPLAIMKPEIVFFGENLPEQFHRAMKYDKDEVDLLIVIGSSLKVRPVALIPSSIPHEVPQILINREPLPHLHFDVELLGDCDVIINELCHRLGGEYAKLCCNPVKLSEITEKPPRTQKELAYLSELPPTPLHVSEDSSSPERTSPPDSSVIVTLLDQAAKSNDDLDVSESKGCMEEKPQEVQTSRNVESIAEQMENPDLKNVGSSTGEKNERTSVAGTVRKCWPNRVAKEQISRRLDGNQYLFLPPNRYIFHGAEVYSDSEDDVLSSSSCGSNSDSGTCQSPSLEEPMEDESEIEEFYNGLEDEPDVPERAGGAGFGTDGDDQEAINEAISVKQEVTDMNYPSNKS
Experiment: SirT1 enzymatic assay, p53-382 Fluor-de-Lys (FdL)
Type: biochemical
Settings: for IC50: Table 1, exemplary compounds
Excerpt: The ability of a compound to inhibit SIRT1 can be evaluated in many ways. In some embodiments, interaction with, e.g., binding of, SIRT1 can be assayed in vitro. The reaction mixture can include a SIRT1 co-factor such as NAD and/or a NAD analog. In other embodiments, the ability of the compound to inhibit an enzymatic function, e.g., deacetylase activity of SIRT1, can be assayed in vitro. Assays can include determining the IC50 of the compound.
An exemplary assay method includes a multi-well format of the SirT1 enzymatic assay that is based on the commercial “Fluor-de-Lys” assay principle by Biomol, which is fluorogenic (www.biomol.com/store/Product_Data_PDFs/ak500.pdf). In this assay, deacetylation of the s-amino function of a lysyl residue is coupled to a fluorogenic development step that is dependent on the unblocked ε-amino functionality and generates fluorescent aminomethylcoumarin. Fluorescence can be read on a commercial […]. Standard enzymological analyses can be used to determine Ki.

Row | IC50 [µM] | SMILES | activity against the SirT1 enzyme compared with the enantiomer (isomer with negative optical rotation vs enantiomer with positive optical rotation)
1 | – | NC(=O)C1CCCc2c1[nH]c1ccc(Cl)cc21 (single isomer, unassigned) [isomer of compound 4 having a negative optical rotation, 6-Chloro-2,3,4,9-tetrahydro-1H-carbazole-1-carboxylic acid amide] | greater activity against the SirT1 enzyme
2 | > 10 | O=C(O)C1CCCc2c1[nH]c1ccc(O)cc21 (stereo not shown) [Compound 54, 6-hydroxy-2,3,4,9-tetrahydro-1H-carbazole-1-carboxylic acid] | –
3 | > 10 | NC(=O)C1NCCc2c1[nH]c1ccc(Cl)cc21 (stereo not shown) [Compound 56, 6-chloro-2,3,4,9-tetrahydro-1H-pyrido[3,4-b]indole-1-carboxamide] | –
4 | > 10 | CC(=O)N1CCc2c([nH]c3ccc(Cl)cc23)C1C(N)=O (stereo not shown) [Compound 58, 2-acetyl-6-chloro-2,3,4,9-tetrahydro-1H-pyrido[3,4-b]indole-1-carboxamide] | –
